Earlier results, collected in patent publication US20030194372A1, “Radioimaging probes and the use thereof” (priority 2000, published 2003).

Test system: atheroma
Settings: literature reports

**Q.** For CCC(Cc1c(I)cc(I)c(N)c1I)C(=O)O[C@H]1CC[C@@]2(C)C(=CC[C@H]3[C@@H]4CC[C@H]([C@H](C)CCCC(C)C)[C@@]4(C)CC[C@@H]32)C1 (stereo partly shown) [CI, cholesteryl iopanoate], which “Accumulation in atheroma / atherosclerotic lesions” value is on record?
**A.** accumulated preferentially in atheroma relative to normal arterial tissue
